Experimental data published in PubChem BioAssay AID248 (DTP/NCI, 2004).
Values joined by “and” are separate entries in the source; they are usually repeats but may differ in a detail not shown here. Identical values can stand only once. Inconclusive results and toxic doses are left out. Cut-off read from the data, not from the text of the source: active = T/C of 150% or more; inactive = T/C below 125%.

System: L1210 leukemia ip in BDF1 mice, survival T/C
Assay: NCI In Vivo Anticancer Drug Screen. Data for tumor model L1210 Leukemia (intraperitoneal) in B6D2F1 (BDF1) mice
Conditions: endpoint: mean survival time, higher = longer survival
Method in brief: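 Mice bearing the transplanted tumor received compound or vehicle. Survival of the treated group was divided by that of the vehicle-treated control group to give the ratio.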

[1] = dose: 60.0 mg/kg/injection, schedule: Q01DX Z (ip), vehicle: methylcellulose (MC)
[2] = dose: 100.0 mg/kg/injection, schedule: Q04DX003 (ip), vehicle: Klucel (hydroxypropylcellulose) (HPC)
[3] = dose: 200.0 mg/kg/injection, schedule: Q04DX003 (ip), vehicle: Klucel (hydroxypropylcellulose) (HPC)
[4] = dose: 100.0 mg/kg/injection, schedule: Q01DX001 (ip), vehicle: Klucel (hydroxypropylcellulose) (HPC)
[5] = dose: 200.0 mg/kg/injection, schedule: Q01DX001 (ip), vehicle: Klucel (hydroxypropylcellulose) (HPC)
[6] = dose: 400.0 mg/kg/injection, schedule: Q01DX001 (ip), vehicle: Klucel (hydroxypropylcellulose) (HPC)
[7] = dose: 100.0 mg/kg/injection, schedule: Q01DX001 (ip), vehicle: saline
[8] = dose: 200.0 mg/kg/injection, schedule: Q01DX001 (ip), vehicle: saline
[9] = dose: 400.0 mg/kg/injection, schedule: Q01DX001 (ip), vehicle: saline
[10] = dose: 100.0 mg/kg/injection, schedule: Q01DX009 (ip), vehicle: Klucel (hydroxypropylcellulose) (HPC)
[11] = dose: 200.0 mg/kg/injection, schedule: Q04DX003 (ip), vehicle: saline with Tween-80
[12] = dose: 400.0 mg/kg/injection, schedule: Q04DX003 (ip), vehicle: saline with Tween-80
[13] = dose: 100.0 mg/kg/injection, schedule: Q04DX003 (ip), vehicle: saline with Tween-80

Measured: T/C

OC(c1ccc(Cl)cc1)(c1ccc(Cl)cc1)C(F)(Cl)Cl
inactive: dose: 26.6 mg/kg/injection, schedule: Q01DX Z (ip), vehicle: methylcellulose (MC) 87 % of control | dose: 40.0 mg/kg/injection, schedule: Q01DX Z (ip), vehicle: methylcellulose (MC) 107 % of control | [1] 96 % of control

CC(C)c1ccc(/C=N\NC(=O)N/N=C/c2ccc(C(C)C)cc2)cc1
inactive: [2] 93 % of control | [3] 88 % of control

Nc1ccnc(=S)[nH]1
inactive: [4] 92 % of control | [5] 97 % of control | dose: 250.0 mg/kg/injection, schedule: Q01DX Z (ip), vehicle: methylcellulose (MC) 101 % of control | [6] 94 % of control

CCOC(=O)C(=CC(CC)(C(=O)OCC)C(=O)OCC)C(=O)OCC
inactive: [7] 101 % of control | [8] 97 % of control | [9] 95 % of control

CCCCC1=C(OCC)C(CCCC)C1=O (centres undefined)
inactive: dose: 10.0 mg/kg/injection, schedule: Q01DX009 (ip), vehicle: Klucel (hydroxypropylcellulose) (HPC) 94 % of control | dose: 20.0 mg/kg/injection, schedule: Q01DX009 (ip), vehicle: Klucel (hydroxypropylcellulose) (HPC) 92 % of control | dose: 40.0 mg/kg/injection, schedule: Q01DX009 (ip), vehicle: Klucel (hydroxypropylcellulose) (HPC) 94 % of control | [10] 101 % of control | [2] 96 % of control | [3] 100 % of control

CC(=O)CC(=O)Nc1cc(Cl)c(NC(=O)CC(C)=O)cc1Cl
inactive: [11] 121 % of control | [12] 88 % of control

COC(=O)c1cc(=O)c2cc(C(C)=O)ccc2[nH]1
inactive: dose: 100.0 mg/kg/injection, schedule: Q01DX001 (ip), vehicle: other 95 % of control | dose: 200.0 mg/kg/injection, schedule: Q01DX001 (ip), vehicle: other 94 % of control and 89 % of control | dose: 400.0 mg/kg/injection, schedule: Q01DX001 (ip), vehicle: other 105 % of control and 90 % of control

CNC(=O)Nc1ccc(Nc2ccccc2)cc1
inactive: dose: 100.0 mg/kg/injection, schedule: Q04DX002 (ip), vehicle: Klucel (hydroxypropylcellulose) (HPC) 105 % of control | dose: 200.0 mg/kg/injection, schedule: Q04DX002 (ip), vehicle: Klucel (hydroxypropylcellulose) (HPC) 97 % of control | dose: 400.0 mg/kg/injection, schedule: Q04DX002 (ip), vehicle: Klucel (hydroxypropylcellulose) (HPC) 91 % of control

CC(=O)N1C=C(Br)c2ccccc2C1C1c2ccccc2C(Br)=CN1C(C)=O (centres undefined)
inactive: [13] 91 % of control | [11] 87 % of control | [12] 91 % of control

COc1cc(C)c(O)c(C[P+](c2ccccc2)(c2ccccc2)c2ccccc2)c1
inactive: [13] 91 % of control | [11] 94 % of control

COc1ccc(CN2CCCN(Cc3ccc(OC)cc3OC)C2c2cccc(F)c2)c(OC)c1
inactive: dose: 50.0 mg/kg/injection, schedule: Q01DX001 (ip), vehicle: saline 89 % of control | [7] 89 % of control | [8] 100 % of control | [9] 91 % of control

Cc1c(C)c(NC(=O)/C=C/C(=O)O)c(C)c(C)c1NC(=O)/C=C\C(=O)O
inactive: dose: 100.0 mg/kg/injection, schedule: Q01DX009 (ip), vehicle: saline with Tween-80 104 % of control | dose: 200.0 mg/kg/injection, schedule: Q01DX009 (ip), vehicle: saline with Tween-80 96 % of control | dose: 400.0 mg/kg/injection, schedule: Q01DX009 (ip), vehicle: saline with Tween-80 102 % of control

CC(C)(C)C(/C=N/N=C(N)N)=N\N=C(N)N
inactive: dose: 15.0 mg/kg/injection, schedule: Q01DX Z (ip), vehicle: methylcellulose (MC) 105 % of control | dose: 30.0 mg/kg/injection, schedule: Q01DX Z (ip), vehicle: methylcellulose (MC) 91 % of control | [1] 94 % of control | dose: 120.0 mg/kg/injection, schedule: Q01DX Z (ip), vehicle: methylcellulose (MC) 91 % of control | dose: 600.0 mg/kg/injection, schedule: Q01DX Z (oral), vehicle: methylcellulose (MC) 110 % of control | dose: 720.0 mg/kg/injection, schedule: Q01DX Z (oral), vehicle: methylcellulose (MC) 98 % of control

N#CC=P(c1ccccc1)(c1ccccc1)c1ccccc1
inactive: dose: 50.0 mg/kg/injection, schedule: Q01DX009 (ip), vehicle: saline 87 % of control

COc1ccc(Cl)cc1NC(=O)c1cccc(Cl)c1
inactive: [10] 110 % of control | dose: 200.0 mg/kg/injection, schedule: Q01DX009 (ip), vehicle: Klucel (hydroxypropylcellulose) (HPC) 110 % of control | dose: 400.0 mg/kg/injection, schedule: Q01DX009 (ip), vehicle: Klucel (hydroxypropylcellulose) (HPC) 104 % of control

O=C1CCCCCCCCCOC(=O)CCCCCCCCCO1
inactive: [4] 94 % of control | [5] 94 % of control | [6] 91 % of control

CC(=O)OC1C=CCC23C(=O)C=CC(=O)C12C(=O)c1ccccc1C3=O (centres undefined)
inactive: dose: 0.25 mg/kg/injection, schedule: Q04DX003 (ip), vehicle: water 95 % of control | dose: 0.5 mg/kg/injection, schedule: Q04DX003 (ip), vehicle: water 100 % of control | dose: 1.0 mg/kg/injection, schedule: Q04DX003 (ip), vehicle: water 102 % of control | dose: 2.0 mg/kg/injection, schedule: Q04DX003 (ip), vehicle: water 97 % of control | dose: 4.0 mg/kg/injection, schedule: Q04DX003 (ip), vehicle: water 102 % of control | dose: 8.0 mg/kg/injection, schedule: Q04DX003 (ip), vehicle: water 100 % of control | dose: 16.0 mg/kg/injection, schedule: Q04DX003 (ip), vehicle: saline 102 % of control | dose: 16.0 mg/kg/injection, schedule: Q04DX003 (ip), vehicle: water 97 % of control | dose: 32.0 mg/kg/injection, schedule: Q04DX003 (ip), vehicle: saline 100 % of control | dose: 64.0 mg/kg/injection, schedule: Q04DX003 (ip), vehicle: saline 100 % of control

C#CCN(CC#C)C(C)=O
inactive: dose: 100.0 mg/kg/injection, schedule: Q04DX002 (ip), vehicle: saline 91 % of control | dose: 200.0 mg/kg/injection, schedule: Q04DX002 (ip), vehicle: saline 94 % of control

O=C(SCC(NSc1ccccc1[N+](=O)[O-])C(=O)O)c1ccccc1 (centres undefined)
inactive: dose: 12.0 mg/kg/injection, schedule: Q04DX003 (ip), vehicle: Klucel (hydroxypropylcellulose) (HPC) 90 % of control | dose: 25.0 mg/kg/injection, schedule: Q01DX009 (ip), vehicle: Klucel (hydroxypropylcellulose) (HPC) 95 % of control | dose: 25.0 mg/kg/injection, schedule: Q04DX003 (ip), vehicle: Klucel (hydroxypropylcellulose) (HPC) 95 % of control | dose: 50.0 mg/kg/injection, schedule: Q01DX009 (ip), vehicle: Klucel (hydroxypropylcellulose) (HPC) 98 % of control | dose: 50.0 mg/kg/injection, schedule: Q04DX003 (ip), vehicle: Klucel (hydroxypropylcellulose) (HPC) 95 % of control | [10] 98 % of control
